Results reported in patent publication EP4722201A1, “3-PHENYLISOXAZOLINE-5-CARBOXAMIDE COMPOUND, AND PREPARATION METHOD THEREFOR, HERBICIDAL COMPOSITION THEREOF AND USE THEREOF” (Jiangsu Flag Chemical Industry Co., Ltd, priority 2023, dated 2024).

What was measured:
Assay in all cases: Indoor herbicide activity determination, Seed Treatment; pre-emergence (soil spray)
Assay type in all cases: in vivo
Aegilops tauschii = conditions: read-out: Herbicidal activities (inhibition rate) Aegilops tauschii; for inhibition at 120 g/ha: 120 g a.i./ha; for inhibition at 60 g/ha: 60 g a.i./ha
In short: (§1)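 Weed seeds sown in 7 cm pots of sandy nutrient soil (pH 6.1, 1% organic matter), kept 24 h in a constant-temperature lit room, then soil sprayed by traveling spray tower (flow 390 mL/min). Fresh-weight inhibition % versus untreated controls scored 21 days later.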

Digitaria sanguinalis = conditions: read-out: Herbicidal activities (inhibition rate) Digitaria sanguinalis; for inhibition at 120 g/ha: 120 g a.i./ha; for inhibition at 60 g/ha: 60 g a.i./ha
In short: as §1

Cyperus iria = conditions: read-out: Herbicidal activities (inhibition rate) Cyperus iria; for inhibition at 120 g/ha: 120 g a.i./ha
In short: as §1

Lolium multiflorum = test system: Lolium multiflorum
In short: as §1

Leptochloa chinensis = test system: Leptochloa chinensis
In short: as §1

Alopecurus myosuroides = test system: Alopecurus myosuroides
In short: as §1

Alopecurus japonicus = test system: Alopecurus japonicus
In short: as §1

Eleusine indica = conditions: Dosage 120 g a.i./ha
In short: as §1

Structure (SMILES) | inhibition at 120 g/ha (Aegilops tauschii) | inhibition at 120 g/ha (Digitaria sanguinalis) | inhibition at 120 g/ha (Cyperus iria) | Herbicidal activities, Lolium multiflorum (inhibition rate class) (Lolium multiflorum; Dosage 240 g a.i./ha) | Herbicidal activities, Leptochloa chinensis (inhibition rate class) (Leptochloa chinensis; Dosage 240 g a.i./ha) | Herbicidal activities, Alopecurus myosuroides (inhibition rate class) (Alopecurus myosuroides; Dosage 240 g a.i./ha) | Herbicidal activities, Alopecurus japonicus (inhibition rate class) (Alopecurus japonicus; Dosage 240 g a.i./ha) | Herbicidal activities, Eleusine indica (inhibition rate class) (Eleusine indica) | inhibition at 60 g/ha (Aegilops tauschii) | inhibition at 60 g/ha (Digitaria sanguinalis) | Herbicidal activities, Lolium multiflorum (inhibition rate class) (Lolium multiflorum; Dosage 120 g a.i./ha) | Herbicidal activities, Leptochloa chinensis (inhibition rate class) (Leptochloa chinensis; Dosage 120 g a.i./ha) | Herbicidal activities, Alopecurus myosuroides (inhibition rate class) (Alopecurus myosuroides; Dosage 120 g a.i./ha) | Herbicidal activities, Alopecurus japonicus (inhibition rate class) (Alopecurus japonicus; Dosage 120 g a.i./ha) | inhibition at 60 g/ha (Cyperus iria; 60 g a.i./ha)
COC(=O)[C@H]1C[C@@H](NC(=O)C2(C)CC(c3cc(F)cc(OC(F)(F)F)c3)=NO2)CO1 (mixture of isomers) [I-380] | 80 to 100% | 80 to 100% | 80 to 100% | A (A indicates that the inhibition rate was greater than or equal to 80% to 100%) | A (A indicates that the inhibition rate was greater than or equal to 80% to 100%) | A (A indicates that the inhibition rate was greater than or equal to 80% to 100%) | A (A indicates that the inhibition rate was greater than or equal to 80% to 100%) | – | – | – | – | – | – | – | –
C=C[C@]1(C(=O)N[C@H]2C[C@@H](C(=O)OCC(F)(F)F)C2)CC(c2cc(F)cc(F)c2)=NO1 [I-15] | – | – | – | – | – | – | – | A (A indicates that the inhibition rate was greater than or equal to 80% to 100%) | 80 to 100% | 60 to 80% | A (A indicates that the inhibition rate was greater than or equal to 80% to 100%) | A (A indicates that the inhibition rate was greater than or equal to 80% to 100%) | A (A indicates that the inhibition rate was greater than or equal to 80% to 100%) | A (A indicates that the inhibition rate was greater than or equal to 80% to 100%) | –
C=C[C@]1(C(=O)N[C@H]2C[C@@H](C(=O)O[C@H](C)COC)C2)CC(c2cc(F)cc(F)c2)=NO1 [I-19] | – | – | – | – | – | – | – | A (A indicates that the inhibition rate was greater than or equal to 80% to 100%) | 80 to 100% | 80 to 100% | A (A indicates that the inhibition rate was greater than or equal to 80% to 100%) | A (A indicates that the inhibition rate was greater than or equal to 80% to 100%) | A (A indicates that the inhibition rate was greater than or equal to 80% to 100%) | A (A indicates that the inhibition rate was greater than or equal to 80% to 100%) | 60 to 80%
CC[C@@H](C)OC(=O)[C@H]1C[C@@H](NC(=O)[C@@]2(C)CC(c3cc(F)cc(F)c3)=NO2)C1 [I-128] | – | – | – | – | – | – | – | A (A indicates that the inhibition rate was greater than or equal to 80% to 100%) | 80 to 100% | 60 to 80% | A (A indicates that the inhibition rate was greater than or equal to 80% to 100%) | A (A indicates that the inhibition rate was greater than or equal to 80% to 100%) | A (A indicates that the inhibition rate was greater than or equal to 80% to 100%) | A (A indicates that the inhibition rate was greater than or equal to 80% to 100%) | –
CC[C@H](C)OC(=O)[C@H]1C[C@@H](NC(=O)[C@@]2(C)CC(c3cc(F)cc(F)c3)=NO2)C1 [I-129] | – | – | – | – | – | – | – | A (A indicates that the inhibition rate was greater than or equal to 80% to 100%) | 80 to 100% | 60 to 80% | A (A indicates that the inhibition rate was greater than or equal to 80% to 100%) | B (B indicates that the inhibition rate was greater than or equal to 60% to less than 80%) | A (A indicates that the inhibition rate was greater than or equal to 80% to 100%) | A (A indicates that the inhibition rate was greater than or equal to 80% to 100%) | –
CSCCOC(=O)C1CC(NC(=O)C2(C)CC(c3cc(F)cc(OC(F)(F)F)c3)=NO2)CO1 (stereo not shown) [I-382] | 80 to 100% | 80 to 100% | 80 to 100% | A (A indicates that the inhibition rate was greater than or equal to 80% to 100%) | A (A indicates that the inhibition rate was greater than or equal to 80% to 100%) | A (A indicates that the inhibition rate was greater than or equal to 80% to 100%) | A (A indicates that the inhibition rate was greater than or equal to 80% to 100%) | – | – | – | – | – | – | – | –
